For this test, the target named is hNav1.7 (Homo sapiens (Human), UniProt Q15858). As to the kind of experiment: Patch voltage clamp electrophysiology assay (EP), Syncropatch 384PE, CHO cells expressing Nav1.7. As to conditions: holding potential −50 mV; 7.5 min compound incubation; read-out: EP SP hNav1.7 EVO (IC50). Format: cell-based. From the text: Example 101c: Electrophysiological Assay (EP) (In Vitro Assay)
Patch voltage clamp electrophysiology allows for the direct measurement and quantification of block of voltage-gated sodium channels (NaV's), and allows the determination of the time- and voltage-dependence of block which has been interpreted as differential binding to the resting, open, and inactivated states of the sodium channel (Hille, B., Journal of General Physiology (1977), 69: 497-515).
The following voltage clamp electrophysiology studies are performed on representative compounds using cells heterologously expressing Nav1.7 or Nav1.5 channels. cDNAsfor Nav1.7 (NM_002977) and Nav1.5 (AC137587) are stably expressed in Chinese Hamstr Ovary (CHO) cells and CHL (Chinese Hamster Lung) cells respectively. Sodium currents are measured in the whole-cell configuration using Syncropatch 384PE (Nanlon Technologies, Germany). 1NPC®-384 chips with custom medium resistance and single hole mode are used. Internal solution consists of (in mM): […], 10 CsCl, 20 EGTA, and 10 Hepes (pH adjusted to 7.2); and external solution contains (in mM): 60 NMDG, 80 NaCl, 4 KCl, 1 MgCl2, 2 CaCl2), 2 D-Glucose monohydrate, 10 Hepes (pH adjusted to 7.4 with NaOH).
After system flushing, testing compounds are dissolved in external solution containing 0.1% Pluronic F-127. The chip is moved into the measuring head and the instrument primes the chip with external and internal solutions. 10 μl cells are added to the chip from a cell hotel, and a negative pressure of −50 mBar is applied to form a seal. Following treatment with seal enhancer solution and wash-off with external solution, negative pressure of −250 mbar is applied for 1 second to achieve the whole-cell configuration, followed by three washing steps in external solution. 20 μl of compounds is added to 40 μl in each well (1:3 dilution of compounds), and after mixing, 20 μl is removed so the volume is retained at 40 ul. After approximately 13 minutes recordings, 20 μl/well of 2 uM TTX, or 333 uM Tetracaine (for Nav1.5) is added to achieve full block.
For voltage protocol, an holding potential of −50 mV is applied during the whole experiment. A depolarizing step is applied to −10 mV for 10 ms, followed by a hyperpolarization step to −150 mV for 20 ms to allow channel recovery from inactivation. A second depolarizing step is applied from −150 mV to −10 mV for 10 ms, where currents are measured to derive blocking effects of compounds. Inhibition is determined based on 7.5 min of compound incubation.
In general terms: In patch-clamp work, channel activity is measured electrically.

The term IC50 denotes the midpoint of a concentration-inhibition curve.

Counter-ions that a name gives are not always drawn.

Chain of hNav1.7 (Q15858 other isoform, or with tags, fused parts or gaps): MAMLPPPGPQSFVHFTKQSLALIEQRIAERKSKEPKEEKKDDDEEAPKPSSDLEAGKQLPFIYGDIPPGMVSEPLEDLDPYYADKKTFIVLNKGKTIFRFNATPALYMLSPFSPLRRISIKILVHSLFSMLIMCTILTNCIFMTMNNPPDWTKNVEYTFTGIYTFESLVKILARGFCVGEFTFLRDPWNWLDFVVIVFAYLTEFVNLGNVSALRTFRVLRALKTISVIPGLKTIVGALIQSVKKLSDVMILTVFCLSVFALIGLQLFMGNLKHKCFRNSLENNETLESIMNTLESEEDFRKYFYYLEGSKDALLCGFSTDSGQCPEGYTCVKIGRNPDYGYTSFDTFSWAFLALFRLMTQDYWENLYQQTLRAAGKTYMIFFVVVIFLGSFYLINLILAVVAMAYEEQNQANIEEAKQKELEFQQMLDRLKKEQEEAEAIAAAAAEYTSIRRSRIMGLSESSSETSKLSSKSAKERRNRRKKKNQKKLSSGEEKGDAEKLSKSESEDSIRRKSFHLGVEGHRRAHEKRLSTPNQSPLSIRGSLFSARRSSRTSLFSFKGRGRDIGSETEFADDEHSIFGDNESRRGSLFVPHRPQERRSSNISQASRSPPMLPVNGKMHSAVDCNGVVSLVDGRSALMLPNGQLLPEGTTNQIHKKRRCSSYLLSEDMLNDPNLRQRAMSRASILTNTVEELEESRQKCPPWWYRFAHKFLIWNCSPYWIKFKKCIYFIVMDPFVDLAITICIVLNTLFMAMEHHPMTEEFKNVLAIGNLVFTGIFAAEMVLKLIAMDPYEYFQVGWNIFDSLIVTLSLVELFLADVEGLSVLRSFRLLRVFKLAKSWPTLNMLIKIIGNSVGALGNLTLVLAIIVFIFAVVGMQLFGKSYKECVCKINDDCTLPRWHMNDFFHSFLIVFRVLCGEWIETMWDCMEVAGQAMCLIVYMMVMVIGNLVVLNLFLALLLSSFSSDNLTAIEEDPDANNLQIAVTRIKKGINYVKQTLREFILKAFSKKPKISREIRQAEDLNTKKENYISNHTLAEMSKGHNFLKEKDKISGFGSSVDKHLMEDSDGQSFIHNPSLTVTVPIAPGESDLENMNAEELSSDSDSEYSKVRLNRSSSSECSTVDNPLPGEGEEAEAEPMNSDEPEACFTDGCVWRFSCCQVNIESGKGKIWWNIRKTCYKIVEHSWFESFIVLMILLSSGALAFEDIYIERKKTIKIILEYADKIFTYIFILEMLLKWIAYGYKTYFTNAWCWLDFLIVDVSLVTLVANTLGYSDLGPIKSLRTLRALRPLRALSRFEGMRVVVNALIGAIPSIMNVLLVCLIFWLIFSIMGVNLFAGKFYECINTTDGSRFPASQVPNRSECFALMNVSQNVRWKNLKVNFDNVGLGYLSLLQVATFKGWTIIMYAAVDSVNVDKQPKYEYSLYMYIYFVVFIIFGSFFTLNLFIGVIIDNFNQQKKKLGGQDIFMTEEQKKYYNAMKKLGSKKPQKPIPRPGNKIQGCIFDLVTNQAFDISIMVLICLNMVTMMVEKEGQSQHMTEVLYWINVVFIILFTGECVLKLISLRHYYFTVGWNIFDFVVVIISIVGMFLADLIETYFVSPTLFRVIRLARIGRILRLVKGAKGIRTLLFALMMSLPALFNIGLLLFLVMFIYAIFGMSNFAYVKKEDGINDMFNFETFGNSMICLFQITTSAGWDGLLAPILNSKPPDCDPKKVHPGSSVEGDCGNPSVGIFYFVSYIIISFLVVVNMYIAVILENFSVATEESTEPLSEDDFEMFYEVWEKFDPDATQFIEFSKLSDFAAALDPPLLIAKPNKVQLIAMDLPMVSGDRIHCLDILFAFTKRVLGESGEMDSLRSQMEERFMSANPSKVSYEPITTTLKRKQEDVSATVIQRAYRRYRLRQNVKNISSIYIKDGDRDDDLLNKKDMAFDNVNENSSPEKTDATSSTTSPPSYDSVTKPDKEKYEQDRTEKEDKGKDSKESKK

Take `CN(C)[C@]1(CCc2ccc(C(F)(F)F)c(Cl)c2)CCCN(c2cc(F)c(S(=O)(=O)Nc3ccncn3)c(F)c2)C1` (single isomer, unassigned) [Example 51]: the 50% inhibitory concentration (IC50) turned out to be 1.03 nM.

For the compound `CN(C)[C@@]1(CCc2cccc(C(F)(F)F)c2)CCCN(c2cc(F)c(S(=O)(=O)Nc3ncccn3)c(F)c2)C1` (single isomer, unassigned) [Example 52], the IC50 was determined as 569 nM.

Turning to `CN(C)[C@]1(CCc2cccc(C(F)(F)F)c2)CCCN(c2cc(F)c(S(=O)(=O)Nc3ncccn3)c(F)c2)C1` (single isomer, unassigned) [Example 53], the IC50 came to 9.23 nM.

In the case of `CN(C)[C@@]1(CCc2ccc(Cl)c(C(F)(F)F)c2)CCCN(c2cc(F)c(S(=O)(=O)Nc3ccncn3)c(F)c2)C1` (single isomer, unassigned) [Example 54], the IC50 stood at 362 nM.

In the case of `CN(C)[C@]1(CCc2ccc(Cl)c(C(F)(F)F)c2)CCCN(c2cc(F)c(S(=O)(=O)Nc3ccncn3)c(F)c2)C1` (single isomer, unassigned) [Example 55, formate], the IC50 was 0.879 nM.

Take `CN(C)[C@@]1(CCc2ccc(C(F)(F)F)cc2Cl)CCCN(c2cc(F)c(S(=O)(=O)Nc3ccncn3)c(F)c2)C1` (single isomer, unassigned) [Example 56]: the IC50 was determined as 353 nM.

Consider `CN(C)[C@]1(CCc2ccc(C(F)(F)F)cc2Cl)CCCN(c2cc(F)c(S(=O)(=O)Nc3ccncn3)c(F)c2)C1` (single isomer, unassigned) [Example 57], for which the half-maximal inhibitory concentration (IC50) was determined as 5.04 nM.

As for `CN(C)[C@@]1(CCc2cccc(C(F)(F)F)c2)CCCN(c2cc(F)c(S(=O)(=O)Nc3ccon3)c(F)c2)C1` (single isomer, unassigned) [Example 58], the concentration for half-maximal inhibition (IC50) worked out at 10000 nM.

For `CN(C)[C@]1(CCc2cccc(C(F)(F)F)c2)CCCN(c2cc(F)c(S(=O)(=O)Nc3ccon3)c(F)c2)C1` (single isomer, unassigned) [Example 59], the IC50 turned out to be 16 nM.

As to `CN(CCO)[C@@]1(CCc2cccc(C(F)(F)F)c2)CCCN(c2cc(F)c(S(=O)(=O)Nc3ccncn3)c(F)c2)C1` (single isomer, unassigned) [Example 60], the IC50 was 138 nM.

Consider `CN(CCO)[C@]1(CCc2cccc(C(F)(F)F)c2)CCCN(c2cc(F)c(S(=O)(=O)Nc3ccncn3)c(F)c2)C1` (single isomer, unassigned) [Example 61], for which the 50% inhibitory concentration (IC50) came out at 2.14 nM.

On to `Cc1cc(N2CCC[C@](CCc3cccc(C(F)(F)F)c3)(N(C)C)C2)cc(C)c1S(=O)(=O)Nc1ccncn1` (single isomer, unassigned) [Example 62, formate], for which the IC50 came to 8.59 nM.

Turning to `Cc1cc(N2CCC[C@@](CCc3cccc(C(F)(F)F)c3)(N(C)C)C2)cc(C)c1S(=O)(=O)Nc1ccncn1` (single isomer, unassigned) [Example 63, formate], the half-maximal inhibitory concentration (IC50) was 177 nM.

For the compound `CN(C)[C@@]1(CCc2cccc(C(F)(F)F)c2)CCCN(c2cc(Cl)c(S(=O)(=O)Nc3ccncn3)c(Cl)c2)C1` (single isomer, unassigned) [Example 64], the IC50 turned out to be 1.54 nM.

Regarding `CN(C)[C@]1(CCc2cccc(C(F)(F)F)c2)CCCN(c2cc(Cl)c(S(=O)(=O)Nc3ccncn3)c(Cl)c2)C1` (single isomer, unassigned) [Example 65], the IC50 is 69.4 nM.

Take `Cc1cc(N2CCC[C@](CCc3cccc(C(F)(F)F)c3)(N(C)C)C2)cc(Cl)c1S(=O)(=O)Nc1ccncn1` (single isomer, unassigned) [Example 66, formate]: the half-inhibitory concentration (IC50) turned out to be 501 nM.

As for `Cc1cc(N2CCC[C@@](CCc3cccc(C(F)(F)F)c3)(N(C)C)C2)cc(Cl)c1S(=O)(=O)Nc1ccncn1` (single isomer, unassigned) [Example 67, formate], the IC50 was 2.4 nM.

Take `CN(C)[C@@]1(CCc2c(Cl)cccc2Cl)CCCN(c2cc(F)c(S(=O)(=O)Nc3ccncn3)c(F)c2)C1` (single isomer, unassigned) [Example 68, formate]: the IC50 stood at 3140 nM.

As to `CN(C)[C@]1(CCc2c(Cl)cccc2Cl)CCCN(c2cc(F)c(S(=O)(=O)Nc3ccncn3)c(F)c2)C1` (single isomer, unassigned) [Example 69, formate], the IC50 is 27.7 nM.

As for `CN(C)[C@@]1(CCc2cccc(C(F)(F)F)c2)CCCN(c2ccc(S(=O)(=O)Nc3ccncn3)c(Cl)c2)C1` (single isomer, unassigned) [Example 70], the IC50 was found to be 4.24 nM.

As to `CN(C)[C@]1(CCc2cccc(C(F)(F)F)c2)CCCN(c2ccc(S(=O)(=O)Nc3ccncn3)c(Cl)c2)C1` (single isomer, unassigned) [Example 71, formate], the IC50 amounted to 560 nM.

For `Cc1cc(N2CCC[C@](CCc3cccc(C(F)(F)F)c3)(N(C)C)C2)ccc1S(=O)(=O)Nc1ccncn1` (single isomer, unassigned) [Example 72, formate], the IC50 was determined as 9.2 nM.

With `Cc1cc(N2CCC[C@@](CCc3cccc(C(F)(F)F)c3)(N(C)C)C2)ccc1S(=O)(=O)Nc1ccncn1` (single isomer, unassigned) [Example 73, formate], the half-inhibitory concentration (IC50) was found to be 673 nM.

Turning to `CN(C)[C@]1(CCc2cccc(C(F)(F)F)c2)CN(c2cc(F)c(S(=O)(=O)Nc3ccncn3)c(F)c2)CC[C@H]1O` (single isomer, unassigned) [Example 74, formate], the IC50 came out at 1010 nM.

Regarding `CN(C)[C@@]1(CCc2cccc(C(F)(F)F)c2)CN(c2cc(F)c(S(=O)(=O)Nc3ccncn3)c(F)c2)CC[C@@H]1O` (single isomer, unassigned) [Example 75, formate], the IC50 was found to be 4.48 nM.

Regarding `CN(C)[C@]1(CCc2cccc(C(F)(F)F)c2)CN(c2cc(F)c(S(=O)(=O)Nc3ccncn3)c(F)c2)CC[C@@H]1O` (single isomer, unassigned) [Example 76, formate], the IC50 worked out at 30.8 nM.

Consider `CN(C)[C@@]1(CCc2cccc(C(F)(F)F)c2)CN(c2cc(F)c(S(=O)(=O)Nc3ccncn3)c(F)c2)CC[C@H]1O` (single isomer, unassigned) [Example 77, formate], for which the IC50 was 2.55 nM.

Turning to `CCN(C)[C@@]1(CCc2cccc(C(F)(F)F)c2)CCCN(c2cc(F)c(S(=O)(=O)Nc3ccncn3)c(F)c2)C1` (single isomer, unassigned) [Example 78], the IC50 is 974 nM.

`CCN(C)[C@]1(CCc2cccc(C(F)(F)F)c2)CCCN(c2cc(F)c(S(=O)(=O)Nc3ccncn3)c(F)c2)C1` (single isomer, unassigned) [Example 79, formate]: the concentration for half-maximal inhibition (IC50) was 7.56 nM.

With `CN([C@H]1CCOC1)[C@@]1(CCc2cccc(C(F)(F)F)c2)CCCN(c2cc(F)c(S(=O)(=O)Nc3ccncn3)c(F)c2)C1` (single isomer, unassigned) [Example 80], the 50% inhibitory concentration (IC50) turned out to be 283 nM.

`CN([C@@H]1CCOC1)[C@]1(CCc2cccc(C(F)(F)F)c2)CCCN(c2cc(F)c(S(=O)(=O)Nc3ccncn3)c(F)c2)C1` (single isomer, unassigned) [Example 81]: the IC50 is 0.681 nM.

On to `CN([C@@H]1CCOC1)[C@@]1(CCc2cccc(C(F)(F)F)c2)CCCN(c2cc(F)c(S(=O)(=O)Nc3ccncn3)c(F)c2)C1` (single isomer, unassigned) [Example 82], for which the IC50 was 657 nM.

As to `CN([C@H]1CCOC1)[C@]1(CCc2cccc(C(F)(F)F)c2)CCCN(c2cc(F)c(S(=O)(=O)Nc3ccncn3)c(F)c2)C1` (single isomer, unassigned) [Example 83], the IC50 came out at 1.68 nM.

`Cc1ccc(CC[C@]2(N(C)C)CCCN(c3cc(F)c(S(=O)(=O)Nc4ccncn4)c(F)c3)C2)cc1C(F)(F)F` (single isomer, unassigned) [Example 84, formate]: the IC50 is 2.84 nM.

Regarding `Cc1ccc(CC[C@@]2(N(C)C)CCCN(c3cc(F)c(S(=O)(=O)Nc4ccncn4)c(F)c3)C2)cc1C(F)(F)F` (single isomer, unassigned) [Example 85], the IC50 stood at 250 nM.

On to `CN(C)[C@@]1(CCc2ccc(C3CC3)c(C(F)(F)F)c2)CCCN(c2cc(F)c(S(=O)(=O)Nc3ccncn3)c(F)c2)C1` (single isomer, unassigned) [Example 86], for which the IC50 came to 3.78 nM.

With `CN(C)[C@]1(CCc2ccc(C3CC3)c(C(F)(F)F)c2)CCCN(c2cc(F)c(S(=O)(=O)Nc3ccncn3)c(F)c2)C1` (single isomer, unassigned) [Example 87], the IC50 was 682 nM.

For the compound `CN(C)[C@@]1(CCc2cccc(C3CC3)c2)CCCN(c2cc(F)c(S(=O)(=O)Nc3ccncn3)c(F)c2)C1` (single isomer, unassigned) [Example 88, formate], the IC50 amounted to 3.29 nM.

The values above are taken from patent US20240239766A1, “3-AMINO PIPERIDYL SODIUM CHANNEL INHIBITORS” (Genentech, Inc., priority 2021, published 2024).
